This passage reports Ki results from BindingDB's records for doi:10.1021/acs.jmedchem.5b01801 (University of Liverpool, 2016).

The nature of the assay: Inhibition of Cyclophilin D (unknown origin) activity preincubated for 15 mins followed Suc-AAPF-pNA substrate addition by chymotrypsin coupled based spectrophotometry assay.

A word on the Ki: it is the dissociation constant of the complex between target and ligand, obtained from inhibition or displacement. A lower Ki goes with a stronger hold on the target. As to `Nc1ccc(CNC(=O)NCC(=O)N2CCCC2)cc1`, the Ki was 4.9 µM.
Then `CCOC(=O)CNC(=O)NCc1ccc(NC(C)=O)cc1`, with 2.6 µM.
